Among the test systems are 786-0; CAKI-1; COLO 205; HCT-116; HCT-15; HL-60; HOP-62; HOP-92; MCF7; MDA-MB-435; NCI-H460; NCI-H522; OVCAR-8; RPMI-8226; RXF 393; SK-MEL-2; SK-MEL-5; SNB-19; SNB-75; UACC-62.
Holding throughout (experiment): NCI tumour cell line growth inhibition, 48 h

Each structure is given as a SMILES string.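 These data come from cells grown in 96-well plates and exposed to compound for 48 hours at five concentrations. Abbreviation: GI50, concentration required for 50% inhibition of growth.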 The source made the active and inactive calls. Cut-off read from the data, not from the text of the source: active = GI50 up to about 1.1 µM and inactive = higher.

Consider `CC(C)=CCC[C@@H](C)C1=C(O)C(=O)C(C)=C(Nc2ccccc2Cl)C1=O`, for which the GI50 in the assay on 786-0 was 12.9 µM (inactive); with CAKI-1, 16 µM (inactive); in the assay on COLO 205, 14.2 µM (inactive); with HCT-116, 15 µM (inactive); in the assay with HCT-15, 7.26 µM; with HL-60, 1.22 µM (inactive). Besides, the GI50 in the assay with HOP-62 was 11.6 µM (inactive); in the assay with HOP-92, 27.8 µM (inactive); in the assay on MCF7 it was 24.4 µM (inactive); in the assay with MDA-MB-435 it was 23.9 µM (inactive); in the assay with NCI-H460 it was 14.1 µM (inactive); in the assay on NCI-H522, 6.25 µM (inactive). For the same compound, the GI50 in the assay on OVCAR-8 is 4.71 µM (inactive); in the assay with RPMI-8226, 25.9 µM (inactive); in the assay with RXF 393 it was 22.3 µM (inactive); with SK-MEL-2 it was 15.5 µM (inactive); with SK-MEL-5, 16.8 µM (inactive); in the assay with SNB-19 it was 30.7 µM (inactive). Moreover, the GI50 in the assay on SNB-75 was 8.75 µM (inactive); in the assay with UACC-62, 12.2 µM (inactive).

For `Nc1nc(S)nc2snnc12`, the GI50 is > 100 µM (inactive) in the assay with 786-0; > 100 µM (inactive) in the assay with CAKI-1; > 100 µM (inactive) with COLO 205; > 100 µM (inactive) in the assay on HCT-116; above 100 µM in the assay with HCT-15; > 100 µM (inactive) in the assay on HL-60. Moreover, the GI50 in the assay on HOP-62, with HOP-92, in the assay with MCF7, in the assay with MDA-MB-435, with NCI-H460 and with NCI-H522 was > 100 µM (inactive) each time. Besides, the GI50 in the assay on OVCAR-8, with RPMI-8226, in the assay on RXF 393, with SK-MEL-2, with SK-MEL-5 and with SNB-19 was > 100 µM (inactive) throughout. In addition, the GI50 with SNB-75 and with UACC-62 was > 100 µM (inactive) each time.

For the compound `CC(C)(C)/N=c1/n(C(C)(C)C)oc(=O)n1-c1ccccc1`, the GI50 was > 50 µM (inactive) in the assay on 786-0; > 50 µM (inactive) in the assay with CAKI-1; > 50 µM (inactive) in the assay with COLO 205; > 50 µM (inactive) in the assay on HCT-116; above 50 µM in the assay on HCT-15; 41.1 µM (inactive) with HL-60. Also, the GI50 in the assay on HOP-62, with HOP-92, in the assay with MCF7, in the assay with MDA-MB-435, in the assay with NCI-H460 and with NCI-H522 was > 50 µM (inactive) each time. Also, the GI50 in the assay with OVCAR-8, with RPMI-8226, in the assay with RXF 393, in the assay on SK-MEL-2, in the assay with SK-MEL-5 and in the assay with SNB-19 was > 50 µM (inactive) each time. In addition, the GI50 with SNB-75 is 35.6 µM (inactive); in the assay with UACC-62, > 50 µM (inactive).

Take `CCCCCCCCCCCCC(O)C1CCC(C(O)CCCCCCC(O)CCCCCCCC2=CC(C)OC2=O)O1` (configuration not stated): the GI50 is 32.9 µM (inactive) in the assay on 786-0; 24.9 µM (inactive) in the assay on CAKI-1; 19.7 µM (inactive) with COLO 205; 0.127 µM (active) in the assay with HCT-116; 31.3 µM in the assay with HCT-15; 3.92 µM (inactive) in the assay with HL-60. For the same compound, the GI50 in the assay with HOP-62 is 42.3 µM (inactive); with HOP-92, 25.8 µM (inactive); with MCF7, 0.745 µM (active); in the assay with MDA-MB-435 it was 2.67 µM (inactive); in the assay on NCI-H460 it was 12.9 µM (inactive); with NCI-H522, 16.5 µM (inactive). Moreover, the GI50 in the assay with OVCAR-8 was 36.6 µM (inactive); with RPMI-8226, 7.91 µM (inactive); in the assay on RXF 393, 22.9 µM (inactive); with SK-MEL-2, 24.6 µM (inactive); with SK-MEL-5, 1.19 µM (inactive); with SNB-19, 34.4 µM (inactive). In addition, the GI50 is 5.58 µM (inactive) with SNB-75 and > 10 µM (inactive) in the assay with UACC-62.

In the case of `CCOC(=O)C(NC(=O)CC)(Nc1ccc(S(=O)(=O)Nc2onc(C)c2C)cc1)C(F)(F)F` (configuration not stated), the GI50 with 786-0 is > 100 µM (inactive); in the assay on CAKI-1, > 100 µM (inactive); with COLO 205 it was > 100 µM (inactive); in the assay with HCT-116 it was > 100 µM (inactive); with HCT-15, above 100 µM; in the assay with HL-60 it was > 100 µM (inactive). Besides, the GI50 in the assay on HOP-62, in the assay on HOP-92, with MCF7, with MDA-MB-435, in the assay with NCI-H460 and in the assay with NCI-H522 was > 100 µM (inactive) each time. In addition, the GI50 in the assay with OVCAR-8, in the assay on RPMI-8226, in the assay with RXF 393, in the assay with SK-MEL-2, with SK-MEL-5 and with SNB-19 was > 100 µM (inactive) in each case. Besides, the GI50 was 14.9 µM (inactive) in the assay on SNB-75 and > 100 µM (inactive) in the assay on UACC-62.

Take `COc1ccc(C(C)NNC(=O)c2cc[n+]([BH2-]C#N)cc2)c(OC)c1` (configuration not stated): the GI50 in the assay on 786-0 was > 100 µM (inactive); in the assay with CAKI-1, > 100 µM (inactive); in the assay on COLO 205, > 100 µM (inactive); in the assay on HCT-15, above 100 µM; with HL-60 it was > 100 µM (inactive); with HOP-92 it was > 100 µM (inactive). For the same compound, the GI50 in the assay on MCF7, in the assay on MDA-MB-435, in the assay on NCI-H460, with NCI-H522, in the assay on OVCAR-8 and in the assay with RPMI-8226 was > 100 µM (inactive) throughout. Besides, the GI50 in the assay on RXF 393, in the assay on SK-MEL-2, in the assay with SK-MEL-5, in the assay with SNB-19, in the assay on SNB-75 and in the assay on UACC-62 was > 100 µM (inactive) in each case.

Turning to `Cc1cccc(C)c1NC(=O)C(=O)CC(=O)/C=C/c1ccccc1`, the GI50 is > 100 µM (inactive) in the assay with 786-0; > 100 µM (inactive) in the assay with CAKI-1; > 100 µM (inactive) in the assay on HCT-116; above 100 µM with HCT-15; > 100 µM (inactive) in the assay with HL-60; > 100 µM (inactive) in the assay with HOP-62. Further, the GI50 in the assay with HOP-92 is > 100 µM (inactive); in the assay on MCF7, > 100 µM (inactive); with MDA-MB-435, > 100 µM (inactive); in the assay with NCI-H460, 73.6 µM (inactive); with NCI-H522 it was > 100 µM (inactive); with OVCAR-8 it was > 100 µM (inactive). Besides, the GI50 with RPMI-8226, in the assay on RXF 393, in the assay on SK-MEL-2, in the assay on SK-MEL-5, with SNB-19 and with SNB-75 was > 100 µM (inactive) in each case. In addition, the GI50 in the assay with UACC-62 was > 100 µM (inactive).
